Laboratory results from patent US12503448B2, “Antibacterial and antiparasitic quinoxaline-2,3-diamine derivatives” (University College Cardiff Consultants Limited, priority 2019, dated 2025).
≈ marks a conversion by molar mass, not a printed value. Where two headings read alike, the source gives them in different places.

How the values were obtained:
[1] = test system: M. smegmatis mc^2 15 ATCC 700084; assay: In vitro antibacterial activity; type: cell-based, Mycobacterium smegmatis; conditions: Mycolicibacterium smegmatis, ATCC700084
[2] = test system: Enterococcus faecalis ATCC 29212; assay: Antibacterial MIC (ISO 20776-1); type: cell-based; conditions: ATCC29212
Source text: (§1) In vitro Determination of Antibacterial Activity
(§2) Scientific Reports 8 (1), 2018. Bacterial strains of Enterococcus faecalis—ATCC 29212, NCTC 12201, ATCC 51299; Streptococcus pneumoniae—ATCC 49619, 18778, 21394, 21395; Haemophilus influenza—ATCC 49766, 18391, 17428; Staphylococcus aureus—NCTC 12493, ATCC BAA-077, ATCC 700698, 11051; used for testing the compounds, as previously described in “Clinical laboratory testing and in vitro diagnostics test systems—Susceptibility testing of infectious agents and evaluation of performance of antimicrobial susceptibility devices—Part 1: Reference methods for testing the in vitro activity of antimicrobial agentes against bacteria involved in infectious diseases, ISO/FDIS 20776-1:2006(E). All the procedures were carried out in a biosafety containment level 2.

[3] = test system: Haemophilus influenzae ATCC 49766; assay: Antibacterial MIC (ISO 20776-1); type: cell-based; conditions: ATCC49766
Source text: as §1, §2

[4] = test system: Enterococcus faecalis NCTC 12201; assay: Antibacterial MIC (ISO 20776-1); type: cell-based; conditions: NCTC12201; Enterococcus faecalis NCTC 12201, Vancomycin resistance, vanA
Source text: as §1, §2

[5] = test system: Streptococcus pneumoniae 21395; assay: Antibacterial MIC (ISO 20776-1); type: cell-based
Source text: as §1, §2

[6] = test system: Staphylococcus aureus 11051; assay: Antibacterial MIC (ISO 20776-1); type: cell-based
Source text: as §1, §2

[7] = test system: Staphylococcus aureus NCTC 12493; assay: Antibacterial MIC (ISO 20776-1); type: cell-based; conditions: NCTC12493
Source text: as §1, §2

[8] = test system: Haemophilus influenzae 17428; assay: Antibacterial MIC (ISO 20776-1); type: cell-based; conditions: Haemophilus influenzae 17428, Ampicillin resistance, PBP
Source text: as §1, §2

[9] = test system: Streptococcus pneumoniae 21394; assay: Antibacterial MIC (ISO 20776-1); type: cell-based
Source text: as §1, §2

[10] = test system: Streptococcus pneumoniae 18778; assay: Antibacterial MIC (ISO 20776-1); type: cell-based
Source text: as §1, §2

[11] = test system: Staphylococcus aureus ATCC BAA-977; assay: Antibacterial MIC (ISO 20776-1); type: cell-based; conditions: ATCCBAA977
Source text: as §1, §2

[12] = test system: Haemophilus influenzae 18391; assay: Antibacterial MIC (ISO 20776-1); type: cell-based; conditions: Haemophilus influenzae 18391, AMP/COA resistance, PBP/β-lactamase
Source text: as §1, §2

[13] = test system: Staphylococcus aureus ATCC 700698; assay: Antibacterial MIC (ISO 20776-1); type: cell-based; conditions: ATCC700698
Source text: as §1, §2

[14] = test system: Streptococcus pneumoniae ATCC 49619; assay: Antibacterial MIC (ISO 20776-1); type: cell-based; conditions: ATCC49619
Source text: as §1, §2

[15] = test system: Enterococcus faecalis ATCC 51299; assay: Antibacterial MIC (ISO 20776-1); type: cell-based; conditions: ATCC51299; Enterococcus faecalis ATCC 51299, Vancomycin resistance, vanB
Source text: as §1, §2

[16] = test system: S. aureus ATCC 29213; assay: In vitro antibacterial activity; type: cell-based; conditions: Staphylococcus aureus, ATCC29213
[17] = test system: B. cereus; assay: In vitro antibacterial activity; type: cell-based; conditions: Bacillus cereus
[18] = Mouse pharmacokinetics, oral cassette dosing
Procedure: Non-compartmental mouse pharmacokinetics (Male C57/BL6 Mouse, Fasted; 3 mice per group) were determined after oral administration of a nominal dose of 2.5 mg/kg of these formulations in cassettes (5 compounds/group) according to the protocols employed by WuXi (https://www.wuxiapptec.com; the CRO that conducted these studies).

[19] = test system: Pseudomonas aeruginosa ATCC 27853; assay: In vitro antibacterial activity; type: cell-based; conditions: ATCC27853
[20] = test system: MRSA ATCC 33591; assay: In vitro antibacterial activity; type: cell-based; conditions: Staphylococcus aureus
[21] = test system: S. mansoni schistosomula; assay: 72 hours schistosomula drug screen; type: cell-based, Schistosoma mansoni; conditions: for Selectivity Index Schistosomula: HepG2 CC50 over schistosomula EC50; for EC50: Schistosoma mansoni
Method in brief: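 Newly transformed S. mansoni schistosomula were screened for 72 h in 384-well format. Phenotype and motility were scored, and a schistosomula average was derived.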

[22] = test system: MRSA USA 300; assay: In vitro antibacterial activity; type: cell-based; conditions: Staphylococcus aureus
[23] = M. smegmatis mc^2 15 ATCC 700084, read-out: MIC90
[24] = Enterococcus faecalis ATCC 29212, read-out: MIC
[25] = Streptococcus pneumoniae 21395, ERY, CLIND resistance, MLSB, read-out: MIC
[26] = Staphylococcus aureus 11051, Tetracycline resistance, read-out: MIC
[27] = Staphylococcus aureus NCTC 12493, Flucloxacillin resistance, mecA, read-out: MIC
[28] = Streptococcus pneumoniae 21394, Penicillin resistance, PBP, read-out: MIC
[29] = Streptococcus pneumoniae 18778, ERY, TET resistance, read-out: MIC
[30] = Staphylococcus aureus ATCC BAA-977, ERY/CLIND resistance, MLSB, read-out: MIC
[31] = Staphylococcus aureus ATCC 700698, Vancomycin resistance, hVISA, read-out: MIC
[32] = Streptococcus pneumoniae ATCC 49619, read-out: MIC
[33] = S. aureus ATCC 29213, read-out: MIC90
[34] = male, C57/BL6, mouse, plasma, po, 2.5 mg/kg
[35] = oral, nominal dose 2.5 mg/kg, cassette
[36] = Pseudomonas aeruginosa ATCC 27853, read-out: MIC90
[37] = average of phenotype and motility, read-out: EC50 Schistosomula average
[38] = schistosomula, 72 hour culture, read-out: EC50 Motility
[39] = schistosomula, 72 hour culture, read-out: EC50 Phenotype
[40] = Streptococcus pneumoniae, 21395
[41] = Streptococcus pneumoniae, 21394
[42] = Streptococcus pneumoniae, 18778

| Compound | MIC90 [1, 23] [µg/mL] | MIC [2, 24] [µg/mL] | MIC [3] [µg/mL] | MIC [4] [µg/mL] | MIC [5, 25] [µg/mL] | MIC [6, 26] [µg/mL] | MIC [8] [µg/mL] | MIC [12] [µg/mL] | MIC [13, 31] [µg/mL] | MIC [15] [µg/mL] | MIC90 [16, 33] [µg/mL] | AUC(0-t) [18, 34] [ng·h/mL] | Cmax [18, 34] [ng/mL] | MRT last [18, 34] [h] | Tmax [18, 34] [h] | MIC90 [20] [µg/mL] | Selectivity Index Schistosomula [21] | EC50 [21, 38] [nM] | EC50 [21, 39] [nM] | MIC90 [22] [µg/mL] | other results |
| --- | --- | --- | --- | --- | --- | --- | --- | --- | --- | --- | --- | --- | --- | --- | --- | --- | --- | --- | --- | --- | --- |
| O=[N+]([O-])c1ccc2nc(Nc3ccc(C(F)(F)F)cc3)c(Nc3ccc(C(F)(F)F)cc3)nc2c1 [Compound 11, 6-nitro-N^2, N^3-bis(4-(trifluoromethyl)phenyl)quinoxaline-2,3-diamine] | 31.2 (≈ 63.3 µM) | 0.06 (≈ 0.122 µM) | 16 (≈ 32.4 µM) | 0.06 (≈ 0.122 µM) | 2 (≈ 4.05 µM) | 0.125 (≈ 0.253 µM) | 16 (≈ 32.4 µM) | 16 (≈ 32.4 µM) | 0.125 (≈ 0.253 µM) | 0.25 (≈ 0.507 µM) | 0.98 (≈ 1.99 µM) | 419 | 68.8 | 6.5 | 4 | < 3.91 | 33 | 530 | 420 | < 3.91 | MIC [7, 27]: 0.125 µg/mL (≈ 0.253 µM); MIC [9, 28]: 4 µg/mL (≈ 8.11 µM); MIC [10, 29]: 4 µg/mL (≈ 8.11 µM); MIC [11, 30]: 0.125 µg/mL (≈ 0.253 µM); MIC [14, 32]: 2 µg/mL (≈ 4.05 µM); MIC90 ([17]; B. cereus, read-out: MIC90): < 62.5 µg/mL; half-life ([18]; male, C57/BL6, mouse, in vivo, po, 2.5 mg/kg): 3.74 h; AUC(0-inf) [18, 34]: 444 ng·h/mL; MRT inf [18, 34]: 7.84 h; AUCExtra [18, 35]: 1.82%; AUMCExtra [18, 35]: 6.77%; MIC90 [19, 36]: > 125 µg/mL; EC50 [21, 37]: 480 nM |
| O=[N+]([O-])c1ccc2nc(Nc3ccc(F)c(C(F)(F)F)c3)c(Nc3ccc(F)c(C(F)(F)F)c3)nc2c1 [Compound 7, N^2, N^3-bis(4-fluoro-3-(trifluoromethyl)phenyl)-6-nitroquinoxaline-2,3-diamine] |  |  | > 64 | 0.5 (≈ 0.945 µM) |  |  | > 64 | > 64 | 0.5 (≈ 0.945 µM) | 0.5 (≈ 0.945 µM) |  | 89.6 | 21.2 | 4.75 | 4 | < 3.91 | 14 | 540 | 540 | < 3.91 | MIC90 [1]: 62.5 µg/mL (≈ 118 µM); MIC ([2]; Enterococcus faecalis): 1 µg/mL (≈ 1.89 µM); MIC [5, 40]: 8 µg/mL (≈ 15.1 µM); MIC ([6]; Staphylococcus aureus, 11051): 0.5 µg/mL (≈ 0.945 µM); MIC ([7]; Staphylococcus aureus): 0.5 µg/mL (≈ 0.945 µM); MIC [9, 41]: 32 µg/mL (≈ 60.5 µM); MIC [10, 42]: 32 µg/mL (≈ 60.5 µM); MIC ([11]; Staphylococcus aureus): 0.5 µg/mL (≈ 0.945 µM); MIC ([14]; Streptococcus pneumoniae): 8 µg/mL (≈ 15.1 µM); MIC90 [16]: 1.95 µg/mL (≈ 3.68 µM); MIC90 [17]: 125 µg/mL (≈ 236 µM); MIC90 ([19]; Pseudomonas aeruginosa): > 125 µg/mL |
| COc1ccc(Nc2nc3ccc([N+](=O)[O-])cc3nc2Nc2ccc(OC)c(C(F)(F)F)c2)cc1C(F)(F)F [Compound 12, N^2, N^3-bis(4-methoxy-3-(tritluoromethyl)phenyl)-6-nitroquinoxaline-2,3-diamine] | > 125 | 0.5 (≈ 0.903 µM) | 64 (≈ 116 µM) | 0.5 (≈ 0.903 µM) | 8 (≈ 14.5 µM) | 2 (≈ 3.61 µM) | > 128 | 64 (≈ 116 µM) | 1 (≈ 1.81 µM) | 1 (≈ 1.81 µM) | 62.5 (≈ 113 µM) | 77.8 | 20.1 | 4.76 | 4 | 31.2 (≈ 56.5 µM) | 9 | 650 | 570 | 15.6 (≈ 28.2 µM) | MIC [7, 27]: 1 µg/mL (≈ 1.81 µM); MIC [9, 28]: 8 µg/mL (≈ 14.5 µM); MIC [10, 29]: 16 µg/mL (≈ 28.9 µM); MIC [11, 30]: 1 µg/mL (≈ 1.81 µM); MIC [14, 32]: 8 µg/mL (≈ 14.5 µM); MIC90 ([17]; B. cereus, read-out: MIC90): < 62.5 µg/mL; MIC90 [19, 36]: > 125 µg/mL; EC50 [21, 37]: 610 nM |
| O=[N+]([O-])c1ccc2nc(Nc3cccc(Cl)c3)c(Nc3cccc(Cl)c3)nc2c1 [Compound 5, N^2, N^3-bis(3-chlorophenyl)-6-nitroquinoxaline-2,3-diamine] |  |  | 4 (≈ 9.38 µM) | 0.06 (≈ 0.141 µM) |  |  | 8 (≈ 18.8 µM) | 8 (≈ 18.8 µM) |  | 0.25 (≈ 0.586 µM) | < 3.91 |  |  |  |  | 3.91 (≈ 9.17 µM) | 5 | 1300 | 1220 | 3.91 (≈ 9.17 µM) | MIC90 [1]: > 125 µg/mL; MIC ([2]; Enterococcus faecalis): 0.25 µg/mL (≈ 0.586 µM); MIC [5, 40]: 4 µg/mL (≈ 9.38 µM); MIC ([6]; Staphylococcus aureus, 11051): 0.125 µg/mL (≈ 0.293 µM); MIC ([7]; Staphylococcus aureus): 0.06 µg/mL (≈ 0.141 µM); MIC [9, 41]: 4 µg/mL (≈ 9.38 µM); MIC [10, 42]: 8 µg/mL (≈ 18.8 µM); MIC ([11]; Staphylococcus aureus): 0.125 µg/mL (≈ 0.293 µM); MIC ([13]; Staphylococcus aureus): 0.125 µg/mL (≈ 0.293 µM); MIC ([14]; Streptococcus pneumoniae): 4 µg/mL (≈ 9.38 µM); MIC90 [17]: 125 µg/mL (≈ 293 µM); MIC90 ([19]; Pseudomonas aeruginosa): > 125 µg/mL |
